# Target: T1, GST-Bfl-1 (Homo sapiens, UniProt Q16548)
# T1 construct: lacking their C-terminal transmembrane domains (about the last 20 amino acids) (“ΔTM”); made in house; host or cells: XL-1 Blue E. coli, pGEX 4T-1
# T1 sequence (Q16548 1-155 limits assumed): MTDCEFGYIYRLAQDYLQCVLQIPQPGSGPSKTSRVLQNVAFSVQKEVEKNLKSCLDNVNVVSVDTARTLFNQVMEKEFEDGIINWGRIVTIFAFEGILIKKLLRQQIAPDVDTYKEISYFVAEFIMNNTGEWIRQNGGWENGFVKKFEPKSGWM
# Experiment: Bfl-1/FITC-Bid BH3 competitive fluorescence polarization assay
# Format: binding
# Details: primary HTS hits, MLSCN library (PubChem SIDs), Table 5B
# Description: A FPA was performed to determine the binding affinity of FITC-Bid BH3 peptide to Bcl-2 proteins. […] IC50 determinations were performed using GraphPad Prism software (GraphPad, Inc., San Diego, Calif.). FPA competition assays were performed using the same procedure described above, except that 100 nM of GST-Bfl-1 protein in a volume of 45 μl was incubated with 5 μl (50 μM) test compounds in DMSO per well for 30 min prior to addition of 50 μl (5 nM) FITC-Bid BH3 peptide. The final DMSO concentration was 5% when the reactions brought to fall volume of 100 μl. Fluorescence polarization was measured after 10 min. Compounds that reduced the fluorescence polarization by 50% were considered hits.
SMILES,% Activity,FRatio
COCCn1c(SCC(=O)Nc2ncc(Cl)c(C)c2Cl)nc2ccccc21 [Compound 3717339],64.7%,0.94
CC(=N)/C(C#N)=C(/O)CSc1nnc(NC(C)C)s1 [Compound 3717601],84.1%,0.47
CCn1ccc(C(=O)Nc2ccc(S(=O)(=O)Nc3ccccc3OC)cc2)n1 [Compound 4241115],82%,0.87
O=C(CSc1nc(O)c2ccccc2n1)c1ccc(O)c(O)c1 [Compound 4242102],64.2%,0.57
O=C(O)c1cccc(-n2cccc2/C=N/O)c1 [Compound 4243236],70%,0.86
CSc1ccccc1NC(=O)c1noc2c1CCC2 [Compound 4244309],75.7%,0.44
COc1ccc(C(N)CCc2ccc(C)o2)cc1 (stereo not shown) [Compound 4244526],67.6%,0.84
Cc1c(C(=O)OCC2CCCO2)[nH]c2c1C(=O)CC(c1ccco1)C2 (stereo not shown) [Compound 4244684],54.3%,0.79
COc1ccc(-c2coc3c(CN4CCCCC4)c(O)c(CN4CCCCC4)c(O)c3c2=O)cc1 [Compound 4244723],82.5%,0.51
O=C(NCc1ccccn1)c1ccc2nc(-c3ccco3)c(-c3ccco3)nc2c1 [Compound 4245216],107.1%,1.18
COC(=O)c1ccccc1NC(=O)c1noc2c1CCC2 [Compound 4245926],72.8%,0.46
Cc1cc(C)c2cc3c(ccn3C3OC[C@H](O)[C@H](O)[C@H]3O)cc2n1 (stereo partly shown) [Compound 4247900],52.1%,1.1
COc1ccc(-c2nc3n(n2)C(c2cccnc2)C(C(N)=O)=C(C)N3)cc1 (stereo not shown) [Compound 4250160],88.5%,0.81
O=C(NCCCN1CCN(Cc2ccccc2)CC1)C1CCN(c2nnc(-n3cccc3)s2)CC1 [Compound 4250401],50.8%,0.86
COC(=O)CNc1c(-c2ccccn2)nc2ccc(Br)cn12 [Compound 4251133],51.2%,1.16
O=c1c2cc(N3CCOCC3)ccc2[nH]c(=S)n1CCCN1CCCCCC1 [Compound 4251175],62.3%,0.65
C=CCNS(=O)(=O)c1nc(C)c(Cl)c(C)c1C#N [Compound 4251530],69.9%,0.59
CCOC(=O)N1CCN(c2cc(NCCC(=O)O)c3c4c(onc24)-c2ccccc2C3=O)CC1 [Compound 4252106],78.1%,0.86
Nc1nc(-c2ccco2)nn1C(=O)CCc1ccccc1 [Compound 4254649],63.2%,0.83
Cc1cc(C)nc(Nc2ccc(N3CCCC3)cc2)n1 [Compound 4256031],108.1%,0.2
CCOc1ccc(C(=O)Nc2ccc(N3CCN(C)CC3)cc2)cc1Br [Compound 4256635],70%,0.53

SMILES,% Activity,FRatio
Cc1ccc(CNc2ccc3c(c2)OCO3)cc1 [Compound 4257119],50.6%,1.2
COc1ccc2c(c1)c(=O)oc1cc(OCC(=O)N3CCC(C)CC3)ccc12 [Compound 4257486],104.8%,0.49
Cc1ccc(C)n1-c1cccc(C(=O)O)c1 [Compound 4257870],95.8%,0.65
O=C(Nc1ccccc1)c1ccc2nc(-c3ccco3)c(-c3ccco3)nc2c1 [Compound 4258186],52.2%,0.88
O=C(Nc1ccc2nc(-c3ccco3)c(-c3ccco3)nc2c1)N1CCCCCC1 [Compound 4258795],83.2%,0.96
COCc1cc(C2SCC(=O)Nc3c2c(O)nn3C(C)C)ccc1OC (stereo not shown) [Compound 4258907],67.1%,1.2
CCCCCc1nnc(NC(=O)Cc2cccs2)s1 [Compound 4259217],69.2%,0.51
CC(=O)c1sc2nc(SCC(=O)N3CCCCC3)nc(O)c2c1C [Compound 4259313],57%,0.82
Cc1nc2ccc(C(=O)O)cc2c2c1CC(C)S2 (stereo not shown) [Compound 4259932],54.7%,0.6
c1ccc(CSc2nnc(-c3ccco3)c(-c3ccco3)n2)cc1 [Compound 4260465],93.8%,0.72
CCOc1ccc2nc(O)c(O)nc2c1 [Compound 4261310],69.6%,1.46
CCCC1=C(C(=O)OCC)C(c2cc(Cl)cc(OC)c2OCC(=O)OCC)NC(=O)N1 (stereo not shown) [Compound 4262430],50.9%,1.19
COC(=O)c1cccc(NC(=O)CSc2nc(C)cc(O)n2)c1 [Compound 4262437],59.9%,0.64
Cc1ccc2cccc(S(=O)(=O)Nc3ccc4c(c3)OCO4)c2n1 [Compound 4262919],80.6%,0.67
CCOC(=O)c1ccc2c(c1)C1C=CCC1C(C(=O)O)N2 (stereo not shown) [Compound 4263567],111.5%,0.4
c1cc2c3c(cccc3c1)NC1(CCCCCC1)N2 [Compound 4263637],64.3%,0.58
COc1ccc(N2C(=O)c3cccc4cccc(c34)C2=O)nn1 [Compound 4265126],58.8%,0.88
COc1ccccc1-c1nnc2sc(-c3cnccn3)nn12 [Compound 4265558],75.3%,0.59
Cc1cc2c(cc1C)NC(c1c(C)n(C)n(-c3ccccc3)c1=O)C1=C(O)CC(C)(C)CC1=N2 (stereo not shown) [Compound 4265815],58.3%,1.46
COc1ccc(Nc2cc(C)nc3nc(C)nn23)cc1Cl [Compound 7967129],82.3%,1.11
CN(C)c1ccc(NC(=O)Cn2cc3c(n2)CCCC3)cc1 [Compound 7968138],57.6%,0.56

SMILES,% Activity,FRatio
COc1ccc(N2Cc3cccc(C(=O)O)c3C2=O)cc1 [Compound 7969281],113.7%,0.86
O=C(NCCN1CCCCCC1)C1CCC(CNS(=O)(=O)c2cccc3cccnc23)CC1 (stereo not shown) [Compound 7969436],51.8%,0.97
Cc1csc2nc(CNS(=O)(=O)N(C)C)cn12 [Compound 7970333],53.8%,0.96
CCOC(=O)C1=C(C)S/C(=C\N(C)C)C1=O [Compound 7972859],68.4%,0.91
Cc1cccc(OCC(=O)Nc2ccc(S(=O)(=O)N3CCCC3)cc2)c1 [Compound 7973703],79.2%,0.82
C=CCSc1nnc2nc3c(nn12)c1cc(C)ccc1n3CC=C [Compound 7973953],69.4%,0.82
COc1ccc(NC(=O)c2cnn3c(C(F)(F)F)cc(-c4ccco4)nc23)cc1OC [Compound 7974080],52%,0.9
Cc1ccc(O)c(/N=C/C2=C(O)c3ccccc3C2=O)c1 [Compound 7974116],56%,0.92
Cc1ccc(OCC(=O)Nc2ccc(N3CCCC3)cc2)cc1C [Compound 7974807],90.6%,0.76
Cc1cccc(OCC(=O)Nc2ccc(N3CCCC3)cc2)c1C [Compound 7975075],76.1%,0.72
O=C1CCCC2=C1C(c1ccco1)Nc1ccc3ccccc3c12 (stereo not shown) [Compound 7975176],52.2%,0.73
Brc1ccc2ncnc(Nc3ccc(N4CCOCC4)cc3)c2c1 [Compound 7975247],86.8%,0.87
Cc1ccccc1C1C(=O)c2sc3nc4c(c(=O)n3c2C1=O)CCC4 (stereo not shown) [Compound 7977096],50.8%,0.88
CCSc1nnc(NC(=O)c2cnccn2)s1 [Compound 7977261],58.3%,1.19
O=c1oc2c3c4c(cc2s1)CCCN4CCC3 [Compound 7978324],66.9%,1.02
CC1=C(N2C(=O)c3ccc4c5c(ccc(c35)C2=O)CC4)C(C)N(c2ccccc2)N1C (stereo not shown) [Compound 7978392],111.5%,0.39
Cc1ccc2nc(O)c(C3C(C#N)=C(N)Oc4c3ccc3cccnc43)cc2c1 (stereo not shown) [Compound 14720783],55%,0.84
Cc1cccc2cc(C(c3nnnn3C(C)(C)C)N(Cc3ccco3)CC3CCCO3)c(O)nc12 (stereo not shown) [Compound 14720806],64.5%,0.95
Cc1cc2cc(CN(Cc3ccco3)S(=O)(=O)c3c(C)ccc4nsnc34)c(O)nc2cc1C [Compound 14720830],56%,1.29
O=C(Nc1ccccc1C(=O)O)c1ccccc1 [Compound 14723278],85.4%,0.87

# — patent US20090118135A1, “METHODS AND COMPOUNDS FOR REGULATING APOPTOSIS” (The Burnham Institute, priority 2007, published 2009)
